Measurements published in ChEMBL document CHEMBL5303573, “Mapping human microbiome drug metabolism by gut bacteria and their genes” (Nature, 2019).

Key:
[1] = akkermansia muciniphila, 12 h, 2 µM
Description: The drug is tested on Akkermansia muciniphila strain: ATCC BAA-835 for biotransformation. The drug concentrations were measured before and after a 12-h incubation by liquid-chromatography-coupled mass spectrometry (LC–MS)

[2] = The drug is tested on Enterobacter cancerogenus strain: ATCC35316 for biotransformation. The drug concentrations were measured before and after a 12-h incubation by liquid-chromatography-coupled mass spectrometry (LC–MS); details: 2 µM
[3] = The drug is tested on Clostridium symbiosum strain: ATCC14940 for biotransformation. The drug concentrations were measured before and after a 12-h incubation by liquid-chromatography-coupled mass spectrometry (LC–MS); details: 2 µM
[4] = The drug is tested on Blautia luti strain: DSM14534 for biotransformation. The drug concentrations were measured before and after a 12-h incubation by liquid-chromatography-coupled mass spectrometry (LC–MS); type: ADME; parameters: dose 2 uM, timepoint 0 vs 12 hours; details: 2 µM
[5] = The drug is tested on Bacteroides cellulosilyticus strain: DSM14838 for biotransformation. The drug concentrations were measured before and after a 12-h incubation by liquid-chromatography-coupled mass spectrometry (LC–MS); details: 2 µM
[6] = anaerostipes sp., 12 h, 2 µM
Description: The drug is tested on Anaerostipes sp. strain: fecal isolate for biotransformation. The drug concentrations were measured before and after a 12-h incubation by liquid-chromatography-coupled mass spectrometry (LC–MS)

[7] = The drug is tested on Dorea formicigenerans strain: ATCC27755 for biotransformation. The drug concentrations were measured before and after a 12-h incubation by liquid-chromatography-coupled mass spectrometry (LC–MS); details: 2 µM
[8] = The drug is tested on Coprococcus comes strain: ATCC27758 for biotransformation. The drug concentrations were measured before and after a 12-h incubation by liquid-chromatography-coupled mass spectrometry (LC–MS); type: ADME; parameters: dose 2 uM, timepoint 0 vs 12 hours; details: 2 µM
[9] = The drug is tested on Odoribacter splanchnicus strain: fecal isolate for biotransformation. The drug concentrations were measured before and after a 12-h incubation by liquid-chromatography-coupled mass spectrometry (LC–MS); details: 2 µM
[10] = The drug is tested on Bacteroides fragilis strain: HMW610 for biotransformation. The drug concentrations were measured before and after a 12-h incubation by liquid-chromatography-coupled mass spectrometry (LC–MS); details: 2 µM
[11] = bacteroides fragilis, 12 h, 2 µM
Description: The drug is tested on Bacteroides fragilis strain: DS-208 for biotransformation. The drug concentrations were measured before and after a 12-h incubation by liquid-chromatography-coupled mass spectrometry (LC–MS)

[12] = The drug is tested on Bacteroides fragilis strain: HMW615 for biotransformation. The drug concentrations were measured before and after a 12-h incubation by liquid-chromatography-coupled mass spectrometry (LC–MS); details: 2 µM
[13] = The drug is tested on Subdoligranulum variabile strain: DSM15176 for biotransformation. The drug concentrations were measured before and after a 12-h incubation by liquid-chromatography-coupled mass spectrometry (LC–MS); details: 2 µM
[14] = The drug is tested on Bacteroides uniformis strain: ATCC8492 for biotransformation. The drug concentrations were measured before and after a 12-h incubation by liquid-chromatography-coupled mass spectrometry (LC–MS); details: 2 µM
[15] = segatella copri, 12 h, 2 µM
Description: The drug is tested on Prevotella copri strain: DSM18205 for biotransformation. The drug concentrations were measured before and after a 12-h incubation by liquid-chromatography-coupled mass spectrometry (LC–MS)

[16] = The drug is tested on Bacteroides xylanisolvens strain: DSM18836 for biotransformation. The drug concentrations were measured before and after a 12-h incubation by liquid-chromatography-coupled mass spectrometry (LC–MS); details: 2 µM
[17] = The drug is tested on Clostridium asparagiforme strain: DSM15981 for biotransformation. The drug concentrations were measured before and after a 12-h incubation by liquid-chromatography-coupled mass spectrometry (LC–MS); type: ADME; parameters: dose 2 uM, timepoint 0 vs 12 hours; details: enterocloster asparagiformis, 2 µM
[18] = The drug is tested on Bacteroides caccae strain: ATCC43185 for biotransformation. The drug concentrations were measured before and after a 12-h incubation by liquid-chromatography-coupled mass spectrometry (LC–MS); details: 2 µM
[19] = bacteroides intestinalis, 12 h, 2 µM
Description: The drug is tested on Bacteroides intestinalis strain: DSM17393 for biotransformation. The drug concentrations were measured before and after a 12-h incubation by liquid-chromatography-coupled mass spectrometry (LC–MS)

[20] = The drug is tested on Bacteroides vulgatus strain: ATCC8482 for biotransformation. The drug concentrations were measured before and after a 12-h incubation by liquid-chromatography-coupled mass spectrometry (LC–MS); details: phocaeicola vulgatus, 2 µM

SMILES	Bacterial Biotransformation [1]	Bacterial Biotransformation [2]	Bacterial Biotransformation [3]	Bacterial Biotransformation [4]	Bacterial Biotransformation [5]	Bacterial Biotransformation [6]	Bacterial Biotransformation [7]	Bacterial Biotransformation [8]	Bacterial Biotransformation [9]	Bacterial Biotransformation [10]	Bacterial Biotransformation [11]	Bacterial Biotransformation [12]	Bacterial Biotransformation [13]	Bacterial Biotransformation [14]	Bacterial Biotransformation [15]	Bacterial Biotransformation [16]	Bacterial Biotransformation [17]	Bacterial Biotransformation [18]	Bacterial Biotransformation [19]	Bacterial Biotransformation [20]
O=C1[C@H](CC[C@H](O)c2ccc(F)cc2)[C@@H](c2ccc(O)cc2)N1c1ccc(F)cc1 [EZETIMIBE]	Compound NOT metabolized	Compound NOT metabolized	Compound NOT metabolized	Compound NOT metabolized	Compound NOT metabolized	Compound NOT metabolized	Compound NOT metabolized	Compound NOT metabolized	Compound NOT metabolized	Compound NOT metabolized	Compound NOT metabolized	Compound NOT metabolized	Compound NOT metabolized	Compound metabolized	Compound NOT metabolized	Compound NOT metabolized	Compound NOT metabolized	–	–	–
CC(=O)CCCCn1c(=O)c2c(ncn2C)n(C)c1=O [PENTOXIFYLLINE]	Compound NOT metabolized	Compound NOT metabolized	Compound NOT metabolized	Compound NOT metabolized	Compound NOT metabolized	Compound NOT metabolized	Compound NOT metabolized	Compound NOT metabolized	Compound NOT metabolized	Compound NOT metabolized	Compound NOT metabolized	–	Compound NOT metabolized	Compound NOT metabolized	Compound NOT metabolized	Compound NOT metabolized	Compound NOT metabolized	Compound NOT metabolized	Compound NOT metabolized	–
COc1ccccc1N1CCN(CC(O)COc2cccc3ccccc23)CC1 (stereo not drawn) [NAFTOPIDIL]	Compound NOT metabolized	Compound NOT metabolized	Compound NOT metabolized	Compound NOT metabolized	Compound NOT metabolized	Compound NOT metabolized	Compound NOT metabolized	–	Compound NOT metabolized	Compound metabolized	Compound NOT metabolized	–	Compound NOT metabolized	Compound NOT metabolized	Compound NOT metabolized	Compound NOT metabolized	Compound NOT metabolized	Compound NOT metabolized	Compound NOT metabolized	Compound NOT metabolized
CCc1nn(CCCN2CCN(c3cccc(Cl)c3)CC2)c(=O)n1CCOc1ccccc1 [NEFAZODONE]	Compound NOT metabolized	Compound NOT metabolized	Compound NOT metabolized	Compound NOT metabolized	Compound NOT metabolized	Compound NOT metabolized	Compound NOT metabolized	Compound NOT metabolized	Compound NOT metabolized	Compound NOT metabolized	Compound NOT metabolized	Compound NOT metabolized	Compound NOT metabolized	–	Compound NOT metabolized	Compound NOT metabolized	Compound NOT metabolized	Compound NOT metabolized	Compound NOT metabolized	–
CN(C(=O)CN(CCO)CC(=O)N(C)C(C)(C)Cc1ccccc1)C(C)(C)Cc1ccccc1 [OXETHAZAINE]	Compound NOT metabolized	Compound NOT metabolized	Compound NOT metabolized	Compound NOT metabolized	Compound NOT metabolized	Compound NOT metabolized	Compound NOT metabolized	–	Compound NOT metabolized	Compound NOT metabolized	–	–	Compound NOT metabolized	–	–	–	Compound NOT metabolized	Compound NOT metabolized	–	Compound NOT metabolized
C#C[C@]1(OC(C)=O)CC[C@H]2[C@@H]3CCC4=C/C(=N/O)CC[C@@H]4[C@H]3CC[C@@]21CC [NORGESTIMATE]	–	Compound NOT metabolized	–	Compound NOT metabolized	Compound NOT metabolized	Compound NOT metabolized	Compound NOT metabolized	Compound NOT metabolized	–	Compound NOT metabolized	Compound NOT metabolized	Compound NOT metabolized	Compound NOT metabolized	Compound metabolized	Compound NOT metabolized	Compound NOT metabolized	Compound NOT metabolized	Compound NOT metabolized	Compound NOT metabolized	–
C=CCN1CC[C@]23c4c5ccc(O)c4O[C@H]2C(=O)CC[C@@]3(O)[C@H]1C5 [NALOXONE]	Compound metabolized	Compound NOT metabolized	–	Compound NOT metabolized	Compound NOT metabolized	Compound NOT metabolized	Compound NOT metabolized	Compound NOT metabolized	Compound NOT metabolized	Compound metabolized	Compound metabolized	–	Compound NOT metabolized	Compound metabolized	Compound metabolized	Compound metabolized	Compound NOT metabolized	–	–	Compound metabolized
Cc1nc(Nc2ncc(C(=O)Nc3c(C)cccc3Cl)s2)cc(N2CCN(CCO)CC2)n1.O [DASATINIB]	Compound metabolized	Compound NOT metabolized	Compound NOT metabolized	Compound NOT metabolized	Compound NOT metabolized	Compound metabolized	Compound NOT metabolized	Compound NOT metabolized	Compound NOT metabolized	Compound metabolized	Compound metabolized	–	Compound metabolized	Compound NOT metabolized	Compound metabolized	Compound NOT metabolized	Compound NOT metabolized	Compound NOT metabolized	Compound metabolized	–
COC1=C(OC)C(=O)C(CCCCCCCCCCO)=C(C)C1=O [IDEBENONE]	Compound NOT metabolized	Compound NOT metabolized	Compound NOT metabolized	Compound metabolized	Compound NOT metabolized	Compound metabolized	Compound NOT metabolized	Compound NOT metabolized	Compound metabolized	Compound metabolized	Compound metabolized	–	Compound metabolized	Compound metabolized	Compound NOT metabolized	Compound metabolized	Compound NOT metabolized	Compound metabolized	Compound NOT metabolized	Compound metabolized
